Patent US6770596B1, “Fused tricyclic compounds, process for their preparation, and herbicidal compositions containing them” (Ishihara Sangyo Kaisha Ltd., priority 2002, dated 2004)

Experiments:
Format in all cases: in vivo
[1] = test system: wheat (Triticum aestivum); test: Post-emerge test, crop damage wheat
Summary of the method: (§1)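 Ratings of 0-100 (no damage to complete death) were recorded 14 days after a post-emergence acetone spray. The spray was applied at 8-1000 g ai/ha and 187 l/ha with 0.25% v/v surfactant, to plants at the 2-3 leaf stage in sandy loam pots.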

[2] = test system: field corn (Zea mays L., var. Dekalb 535, CORN); test: Post-emerge test, crop damage field corn
Summary of the method: as §1

[3] = test system: sicklepod (Cassia obtusifolia, CAO); test: Pre-emerge test, sicklepod; settings: 250 g ai/ha, 14 days after application, rating scale 0-100 (0 no damage, 100 complete death)
Summary of the method: (§2)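 Sandy loam soil mix, 10 cm pots, sowing 1 d before treatment; spray volume 187 l/ha, rates 8–1000 g ai/ha in acetone; 0–100 visual rating at 14 d.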

[4] = test system: johnsongrass (Sorghum halepense, SOH); test: Pre-emerge test, johnsongrass; settings: 250 g ai/ha, 14 days after application, rating scale 0-100 (0 no damage, 100 complete death)
Summary of the method: as §2

[5] = test system: sicklepod (Cassia obtusifolia, CAO); test: Post-emerge test, sicklepod; settings: 250 g ai/ha, 14 days after application, rating scale 0-100 (0 no damage, 100 complete death)
Summary of the method: as §1

[6] = test system: velvetleaf (Abutilon theophrasti, ABT); test: Pre-emerge test, velvetleaf; settings: 250 g ai/ha, 14 days after application, rating scale 0-100 (0 no damage, 100 complete death)
Summary of the method: as §2

[7] = test system: velvetleaf (Abutilon theophrasti, ABT); test: Post-emerge test, velvetleaf; settings: 250 g ai/ha, 14 days after application, rating scale 0-100 (0 no damage, 100 complete death)
Summary of the method: as §1

[8] = test system: common ragweed (Ambrosia artemisiifolia L., AML); test: Post-emerge test, common ragweed; settings: 250 g ai/ha, 14 days after application, rating scale 0-100 (0 no damage, 100 complete death)
Summary of the method: as §1

[9] = test system: ivyleaf morningglory (Ipomoea hederacea, IPH); test: Pre-emerge test, ivyleaf morningglory; settings: 250 g ai/ha, 14 days after application, rating scale 0-100 (0 no damage, 100 complete death)
Summary of the method: as §2

[10] = test system: cocklebur (Xanthium strumariunt, XAS); test: Post-emerge test, cocklebur; settings: 250 g ai/ha, 14 days after application, rating scale 0-100 (0 no damage, 100 complete death)
Summary of the method: as §1

[11] = test system: ivyleaf morningglory (Ipomoea hederacea, IPH); test: Post-emerge test, ivyleaf morningglory; settings: 250 g ai/ha, 14 days after application, rating scale 0-100 (0 no damage, 100 complete death)
Summary of the method: as §1

[12] = test system: lambsquarters (Chenopodium album, CHA); test: Pre-emerge test, lambsquarters; settings: 250 g ai/ha, 14 days after application, rating scale 0-100 (0 no damage, 100 complete death)
Summary of the method: as §2

[13] = test system: common ragweed (Ambrosia artemisiifolia L., AML); test: Pre-emerge test, common ragweed; settings: 250 g ai/ha, 14 days after application, rating scale 0-100 (0 no damage, 100 complete death)
Summary of the method: as §2

[14] = test system: lambsquarters (Chenopodium album, CHA); test: Post-emerge test, lambsquarters; settings: 250 g ai/ha, 14 days after application, rating scale 0-100 (0 no damage, 100 complete death)
Summary of the method: as §1

[15] = test system: soybean (Glycine max L., var. Pella 86, SOY); test: Post-emerge test, crop damage soybean
Summary of the method: as §1

[16] = test system: upland rice (Oryza sp., var.Tebonnet, RICE); test: Pre-emerge test, crop damage upland rice
Summary of the method: (§3)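 Compounds are applied in acetone to freshly sown soil (planted one day earlier) at 8 g ai/ha up to 1000 g ai/ha via track sprayer. Plants are assessed at 14 days on a 0–100 injury scale.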

[17] = test system: cocklebur (Xanthium strumariunt, XAS); test: Pre-emerge test, cocklebur; settings: 250 g ai/ha, 14 days after application, rating scale 0-100 (0 no damage, 100 complete death)
Summary of the method: as §2

[18] = test system: large crabgrass (Digitaria sanguinalis, DIS); test: Pre-emerge test, large crabgrass; settings: 250 g ai/ha, 14 days after application, rating scale 0-100 (0 no damage, 100 complete death)
Summary of the method: as §2

[19] = test system: green foxtail (Setaria viridis, SEV); test: Pre-emerge test, green foxtail; settings: 250 g ai/ha, 14 days after application, rating scale 0-100 (0 no damage, 100 complete death)
Summary of the method: as §2

[20] = test system: wheat (Triticum aestivum); test: Pre-emerge test, crop damage wheat
Summary of the method: as §3

[21] = test system: soybean (Glycine max L., var. Pella 86, SOY); test: Pre-emerge test, crop damage soybean
Summary of the method: as §3

[22] = test system: field corn (Zea mays L., var. Dekalb 535, CORN); test: Pre-emerge test, crop damage field corn
Summary of the method: as §3

[23] = test system: upland rice (Oryza sp., var.Tebonnet, RICE); test: Post-emerge test, crop damage upland rice
Summary of the method: as §1

[24] = test system: large crabgrass (Digitaria sanguinalis, DIS); test: Post-emerge test, large crabgrass; settings: 250 g ai/ha, 14 days after application, rating scale 0-100 (0 no damage, 100 complete death)
Summary of the method: as §1

[25] = test system: green foxtail (Setaria viridis, SEV); test: Post-emerge test, green foxtail; settings: 250 g ai/ha, 14 days after application, rating scale 0-100 (0 no damage, 100 complete death)
Summary of the method: as §1

[26] = test system: barnyardgrass (Echinachloa crus-galli, ECC); test: Post-emerge test, barnyardgrass; settings: 250 g ai/ha, 14 days after application, rating scale 0-100 (0 no damage, 100 complete death)
Summary of the method: as §1

[27] = test system: redroot pigweed (Amaranthus retroflexus, AMR); test: Post-emerge test, redroot pigweed; settings: 250 g ai/ha, 14 days after application, rating scale 0-100 (0 no damage, 100 complete death)
Summary of the method: as §1

[28] = test system: redroot pigweed (Amaranthus retroflexus, AMR); test: Pre-emerge test, redroot pigweed; settings: 250 g ai/ha, 14 days after application, rating scale 0-100 (0 no damage, 100 complete death)
Summary of the method: as §2

[29] = test system: johnsongrass (Sorghum halepense, SOH); test: Post-emerge test, johnsongrass; settings: 250 g ai/ha, 14 days after application, rating scale 0-100 (0 no damage, 100 complete death)
Summary of the method: as §1

[30] = test system: barnyardgrass (Echinachloa crus-galli, ECC); test: Pre-emerge test, barnyardgrass; settings: 250 g ai/ha, 14 days after application, rating scale 0-100 (0 no damage, 100 complete death)
Summary of the method: as §2

[31] = post-emerge, 250 g ai/ha, 14 days after application, rating scale 0-100 (0 no damage, 100 complete death)
[32] = pre-emerge, 250 g ai/ha, 14 days after application, rating scale 0-100 (0 no damage, 100 complete death)
[33] = Triticum aestivum (wheat), in vivo, 14 days
[34] = var. Dekalb 535, Zea mays (field corn), in vivo, 14 days
[35] = var. Pella 86, Glycine max (soybean), in vivo, 14 days
[36] = var. Tebonnet, Oryza sp. (upland rice), in vivo, 14 days

Row | SMILES | Pre-emerge Herbicidal Activity CAO (phytotoxicity rating) [3] | Pre-emerge Herbicidal Activity SOH (phytotoxicity rating) [4] | Post-emerge Herbicidal Activity CAO (phytotoxicity rating) [5] | Pre-emerge Herbicidal Activity ABT (phytotoxicity rating) [6] | Post-emerge Herbicidal Activity ABT (phytotoxicity rating) [7] | Post-emerge Herbicidal Activity AML (phytotoxicity rating) [8] | Pre-emerge Herbicidal Activity IPH (phytotoxicity rating) [9] | Post-emerge Herbicidal Activity XAS (phytotoxicity rating) [10] | Post-emerge Herbicidal Activity IPH (phytotoxicity rating) [11] | Pre-emerge Herbicidal Activity CHA (phytotoxicity rating) [12] | Pre-emerge Herbicidal Activity AML (phytotoxicity rating) [13] | Post-emerge Herbicidal Activity CHA (phytotoxicity rating) [14] | Pre-emerge Herbicidal Activity XAS (phytotoxicity rating) [17] | Pre-emerge Herbicidal Activity DIS (phytotoxicity rating) [18] | Pre-emerge Herbicidal Activity SEV (phytotoxicity rating) [19] | Post-emerge Herbicidal Activity DIS (phytotoxicity rating) [24] | Post-emerge Herbicidal Activity SEV (phytotoxicity rating) [25] | Post-emerge Herbicidal Activity ECC (phytotoxicity rating) [26] | Post-emerge Herbicidal Activity AMR (phytotoxicity rating) [27] | Pre-emerge Herbicidal Activity AMR (phytotoxicity rating) [28] | also measured
1 | Cn1c(C(F)(F)F)cc(=O)n(-c2c(F)cc3c4c2NC(=O)CN4C(=O)CO3)c1=O [1-1, 8-[1-methyl-6-(trifluoromethyl)-2,4-(1H, 3H)-pyrimidinedione-3-yl]-9-fluoro-5H-pyrazino[1,2,3-de]-1,4-benzoxazine-3,6-(2H, 7H)-dione] | 100 | 100 | 40 | 100 | 100 | 65 | 100 | 100 | 100 | 100 | 100 | 98 | 99 | 100 | 100 | 0 | 95 | 60 | 100 | 100 | Post-emerge crop damage WHEAT (phytotoxicity rating) [1, 31]: 25; Post-emerge crop damage CORN (phytotoxicity rating) [2, 31]: 0; Post-emerge crop damage SOY (phytotoxicity rating) [15, 31]: 95; Pre-emerge crop damage RICE (phytotoxicity rating) [16, 32]: 100; Pre-emerge crop damage WHEAT (phytotoxicity rating) [20, 32]: 100; Pre-emerge crop damage SOY (phytotoxicity rating) [21, 32]: 100; Pre-emerge crop damage CORN (phytotoxicity rating) [22, 32]: 100; Post-emerge crop damage RICE (phytotoxicity rating) [23, 31]: 99; Post-emerge Herbicidal Activity SOH (phytotoxicity rating) [29]: 25; Pre-emerge Herbicidal Activity ECC (phytotoxicity rating) [30]: 100
2 | Cn1nc(-c2c(F)cc3c4c2NC(=O)CN4C(=O)CO3)c(Cl)c1OC(F)F [1-25, 8-[4-Chloro-5-(difluoromethoxy)-1-methyl-1H-pyrazole-3-yl)-9-fluoro-5H-pyrazino[1,2,3-de]-1,4-benzoxazine-3,6(2H, 7H)-dione] | 100 | 100 | 100 | 100 | 100 | 99 | 100 | 100 | 100 | 100 | 100 | 100 | 95 | 100 | 100 | 60 | 100 | 95 | 100 | 100 | Post-emerge crop damage WHEAT (phytotoxicity rating) [1, 33]: 60; Post-emerge crop damage CORN (phytotoxicity rating) [2, 34]: 35; Post-emerge crop damage SOY (phytotoxicity rating) [15, 35]: 100; Pre-emerge crop damage RICE (phytotoxicity rating) [16, 36]: 85; Pre-emerge crop damage WHEAT (phytotoxicity rating) [20, 33]: 85; Pre-emerge crop damage SOY (phytotoxicity rating) [21, 35]: 40; Pre-emerge crop damage CORN (phytotoxicity rating) [22, 34]: 99; Post-emerge crop damage RICE (phytotoxicity rating) [23, 36]: 100; Post-emerge Herbicidal Activity SOH (phytotoxicity rating) [29]: 60; Pre-emerge Herbicidal Activity ECC (phytotoxicity rating) [30]: 100
3 | CCC1C(=O)Nc2c3c(cc(F)c2-n2c(=O)cc(C(F)(F)F)n(C)c2=O)OCC(=O)N31 (stereo not drawn) [1-4] | 99 | 100 | 0 | 100 | 100 | 80 | 100 | 90 | 90 | 100 | 100 | 99 | 100 | 100 | 100 | 0 | 60 | 50 | 0 | 100 | Post-emerge crop damage WHEAT (phytotoxicity rating) [1, 31]: 25; Post-emerge crop damage CORN (phytotoxicity rating) [2, 31]: 0; Post-emerge crop damage SOY (phytotoxicity rating) [15, 31]: 60; Pre-emerge crop damage RICE (phytotoxicity rating) [16, 32]: 99; Pre-emerge crop damage WHEAT (phytotoxicity rating) [20, 32]: 100; Pre-emerge crop damage SOY (phytotoxicity rating) [21, 32]: 100; Pre-emerge crop damage CORN (phytotoxicity rating) [22, 32]: 100; Post-emerge crop damage RICE (phytotoxicity rating) [23, 31]: 75; Post-emerge Herbicidal Activity SOH (phytotoxicity rating) [29]: 15; Pre-emerge Herbicidal Activity ECC (phytotoxicity rating) [30]: 100
4 | CC(C)C1C(=O)Nc2c3c(cc(F)c2-n2c(=O)cc(C(F)(F)F)n(C)c2=O)OCC(=O)N31 (stereo not drawn) [1-77] | 90 | 99 | 0 | 100 | 50 | 0 | 100 | 50 | 75 | 100 | 100 | 90 | 98 | 100 | 100 | 0 | 0 | 0 | 25 | 100 | Post-emerge crop damage WHEAT (phytotoxicity rating) [1, 31]: 0; Post-emerge crop damage CORN (phytotoxicity rating) [2, 31]: 0; Post-emerge crop damage SOY (phytotoxicity rating) [15, 31]: 10; Pre-emerge crop damage RICE (phytotoxicity rating) [16, 32]: 99; Pre-emerge crop damage WHEAT (phytotoxicity rating) [20, 32]: 99; Pre-emerge crop damage SOY (phytotoxicity rating) [21, 32]: 100; Pre-emerge crop damage CORN (phytotoxicity rating) [22, 32]: 100; Post-emerge crop damage RICE (phytotoxicity rating) [23, 31]: 35; Post-emerge Herbicidal Activity SOH (phytotoxicity rating) [29]: 0; Pre-emerge Herbicidal Activity ECC (phytotoxicity rating) [30]: 100
